Measured values taken from BindingDB's records for doi:10.1016/j.bmcl.2021.128058 (Hibercell, 2021).

Experiment: Inhibition of eIF2alpha (unknown origin) assessed as eIF2alpha phosphorylation by TR-FRET assay

| SMILES | IC50 [nM] |
| --- | --- |
| Cc1cc(NC(=O)Cc2ccccc2)ccc1-c1cnc(N)c(C(=O)NC(C)C)c1 | 307 |
| Cc1cc(NC(=O)Oc2ccccc2)ccc1-c1cnc(N)c(C(=O)NC(C)C)c1 | > 10000 |
| Cc1cc(NC(=O)[C@H](O)c2cc(F)cc(F)c2)ccc1-c1cc(C(=O)NC(C)C)c(N)nn1 | 7650 |
| Cc1cc(NC(=O)[C@@](C)(O)c2ccccc2)ccc1-c1cnc(N)c(C(=O)NC(C)C)c1 | 3020 |
| CNc1ncc(-c2ccc(NC(=O)[C@H](O)c3cc(F)cc(F)c3)cc2C)cc1C(=O)NC(C)C | 4030 |
| COc1cc(NC(=O)[C@H](O)c2cc(F)cc(F)c2)ccc1-c1cnc(N)c(C(=O)NC(C)C)c1 | 366 |
| CNC(=O)c1cc(-c2ccc(NC(=O)[C@H](O)c3cc(F)cc(F)c3)cc2C)cnc1N | 58 |
| CC(C)NC(=O)c1cc(-c2ccc(NC(=O)[C@H](O)c3cc(F)cc(F)c3)cc2F)cnc1N | 72 |
| Cc1cc(NC(=O)[C@H](O)c2cc(F)cc(F)c2)ccc1-c1cncc(C(=O)NC(C)C)c1 | 181 |
| CC(C)NC(=O)c1cc(-c2ccc(NC(=O)[C@H](O)c3cc(F)cc(F)c3)cc2)cnc1N | 313 |
| Cc1cc(NC(=O)[C@H](O)c2ccccc2)ccc1-c1cnc(N)c(C(=O)NC(C)C)c1 | 198 |
| Cc1cc(NC(=O)[C@H](O)c2cc(F)cc(F)c2)ccc1-c1cnc(N)c(C(=O)NC(C)(C)C)c1 | 114 |
| Cc1cc(NC(=O)[C@H](O)c2cc(F)cc(F)c2)ccc1-c1cnc(C)c(C(=O)NC(C)C)c1 | 638 |
| Cc1cccc([C@@H](O)C(=O)Nc2ccc(-c3cnc(N)c(C(=O)NC(C)C)c3)c(C)c2)c1 | 54 |
| Cc1cc(NC(=O)[C@H](O)c2cc(F)cc(F)c2)ccc1-c1cnc(N)c(C(=O)N(C)C)c1 | 2220 |
| Cc1cc(NC(=O)[C@](C)(O)c2ccccc2)ccc1-c1cnc(N)c(C(=O)NC(C)C)c1 | 2130 |
| Cc1cc(NC(=O)[C@H](O)c2cc(F)cc(F)c2)ccc1-c1ccc(N)nc1 | > 10000 |
| Cc1cc(NC(=O)Nc2ccccc2)ccc1-c1cnc(N)c(C(=O)NC(C)C)c1 | 2360 |
| CO[C@@H](C(=O)Nc1ccc(-c2cnc(N)c(C(=O)NC(C)C)c2)c(C)c1)c1ccccc1 | 3340 |
| Cc1cc(NC(=O)[C@@H](O)c2cc(F)cc(F)c2)ccc1-c1cnc(N)c(C(=O)NC(C)C)c1 | 187 |

Molecules with a lower IC50, results first:

| IC50 [nM] | SMILES |
| --- | --- |
| 9 | CCc1cc(NC(=O)[C@H](O)c2cc(F)cc(F)c2)ccc1-c1cnc(N)c(C(=O)NC(C)C)c1 |
| 49 | Cc1cc(NC(=O)[C@H](O)c2cc(F)cc(F)c2)ccc1-c1cnc(N)c(C(=O)OC(C)C)c1 |
| 42 | Cc1cc(NC(=O)[C@H](O)c2cc(F)cc(F)c2)ccc1-c1cnc(N)c(C(=O)NC(C)C)n1 |
| 18 | CCc1cccc([C@@H](O)C(=O)Nc2ccc(-c3cnc(N)c(C(=O)NC(C)C)c3)c(C)c2)c1 |
| 27 | Cc1cc(NC(=O)[C@H](O)c2cc(F)cc(F)c2)ccc1-c1cnc(N)c(C(=O)NC2CC2)c1 |
| 40 | Cc1cc(NC(=O)[C@H](O)c2cccc(Cl)c2)ccc1-c1cnc(N)c(C(=O)NC(C)C)c1 |
| 33 | Cc1cc(NC(=O)[C@H](O)c2cc(F)cc(F)c2)ccc1-c1cnc(N)c(C(=O)NC(C)C)c1 |
| 40 | CNC(=O)c1nc(-c2ccc(NC(=O)[C@H](O)c3cc(F)cc(F)c3)cc2C)cnc1N |
| 23 | CC(C)NC(=O)c1cc(-c2ccc(NC(=O)[C@H](O)c3cc(F)cc(F)c3)cc2Cl)cnc1N |
| 45 | CCNC(=O)c1cc(-c2ccc(NC(=O)[C@H](O)c3cc(F)cc(F)c3)cc2C)cnc1N |
